Test results published in ChEMBL document CHEMBL1201862, “PubChem BioAssay data set” (2004).
The source made the active and inactive calls.

Columns and labels:
[1] = target: T1, Endoribonuclease toxin MazF (Escherichia coli K-12, UniProt P0AE70); assay: MazF toxin RNase activators, dose response, biochemical, fluorescence, single-stranded RNA substrate, uHTS hits (AID 588481); format: functional
T1 sequence (P0AE70 whole entry): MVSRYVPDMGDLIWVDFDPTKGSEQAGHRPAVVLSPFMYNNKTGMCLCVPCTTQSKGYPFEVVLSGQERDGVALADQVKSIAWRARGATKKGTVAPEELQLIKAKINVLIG

[2] = target: T1, Endoribonuclease toxin MazF; assay: fluorescent RNA oligo signal without MazF, dose response, counter-screen for MazEF activator project, biochemical, fluorescence, single-stranded RNase substrate (AID 588502); format: functional
HEK293 [3] = assay: inhibitors of LMP1-driven NF-kB reporter, dose response, cell-based, HEK293, luciferase, cherry-pick (AID 588343); format: functional; conditions: Homo sapiens
[4] = target: Peroxisome proliferator-activated receptor gamma/Nuclear receptor coactivator 1 (Homo sapiens, UniProt P37231); assay: (§1) TR-FRET dose response biochemical High Throughput Screening assay for agonists of the steroid receptor coactivator 1 (SRC-1) recruitment by the peroxisome proliferator-activated receptor gamma (PPAR gamma): non-selective agonists. [Related pubchem assays (depositor defined):AID1300, AID1808, AID504735, AID631]; format: protein assay
[5] = inhibitors of firefly luciferase expression or activity, dose response, H4 neuroglioma cells, luminescence (AID 1990); format: functional, cell-based
[6] = target: Peroxisome proliferator-activated receptor gamma/Nuclear receptor coactivator 3 (Homo sapiens, UniProt P37231); assay: as §1, with “3 (SRC-3)” for “1 (SRC-1)”, “assays: 1301 (Confirmation screen.), 1048 (Primary screen.)]” for “assays (depositor defined):AID1300, AID1808, AID504735, AID631]”; format: functional
[7] = target: Peroxisome proliferator-activated receptor gamma/Nuclear receptor coactivator 2 (Homo sapiens, UniProt P37231); assay: TR-FRET dose response biochemical High Throughput Screening assay for agonists of the steroid receptor coactivator 2 (SRC-2) recruitment by the peroxisome proliferator-activated receptor gamma (PPAR gamma): non-selective agonists. [Related pubchem assays: 1297, 1032 ]; format: functional
Sequence of Peroxisome proliferator-activated receptor gamma/Nuclear receptor coactivator 2 (P37231 whole entry): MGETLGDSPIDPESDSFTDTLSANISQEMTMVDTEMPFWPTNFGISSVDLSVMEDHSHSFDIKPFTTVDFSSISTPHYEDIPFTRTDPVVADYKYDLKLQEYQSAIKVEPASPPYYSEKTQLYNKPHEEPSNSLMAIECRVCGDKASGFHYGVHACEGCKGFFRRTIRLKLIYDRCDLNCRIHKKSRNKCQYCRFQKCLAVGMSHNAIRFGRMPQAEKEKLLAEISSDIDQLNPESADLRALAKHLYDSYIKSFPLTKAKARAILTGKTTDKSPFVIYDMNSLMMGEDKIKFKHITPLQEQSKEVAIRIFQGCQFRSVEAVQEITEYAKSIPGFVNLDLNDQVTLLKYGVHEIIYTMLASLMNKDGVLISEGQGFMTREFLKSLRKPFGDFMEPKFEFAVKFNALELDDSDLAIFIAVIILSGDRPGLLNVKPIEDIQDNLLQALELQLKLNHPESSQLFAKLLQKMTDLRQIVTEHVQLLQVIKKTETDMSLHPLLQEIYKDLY
Sequence of Peroxisome proliferator-activated receptor gamma/Nuclear receptor coactivator 2 (Q15596 whole entry, further chain): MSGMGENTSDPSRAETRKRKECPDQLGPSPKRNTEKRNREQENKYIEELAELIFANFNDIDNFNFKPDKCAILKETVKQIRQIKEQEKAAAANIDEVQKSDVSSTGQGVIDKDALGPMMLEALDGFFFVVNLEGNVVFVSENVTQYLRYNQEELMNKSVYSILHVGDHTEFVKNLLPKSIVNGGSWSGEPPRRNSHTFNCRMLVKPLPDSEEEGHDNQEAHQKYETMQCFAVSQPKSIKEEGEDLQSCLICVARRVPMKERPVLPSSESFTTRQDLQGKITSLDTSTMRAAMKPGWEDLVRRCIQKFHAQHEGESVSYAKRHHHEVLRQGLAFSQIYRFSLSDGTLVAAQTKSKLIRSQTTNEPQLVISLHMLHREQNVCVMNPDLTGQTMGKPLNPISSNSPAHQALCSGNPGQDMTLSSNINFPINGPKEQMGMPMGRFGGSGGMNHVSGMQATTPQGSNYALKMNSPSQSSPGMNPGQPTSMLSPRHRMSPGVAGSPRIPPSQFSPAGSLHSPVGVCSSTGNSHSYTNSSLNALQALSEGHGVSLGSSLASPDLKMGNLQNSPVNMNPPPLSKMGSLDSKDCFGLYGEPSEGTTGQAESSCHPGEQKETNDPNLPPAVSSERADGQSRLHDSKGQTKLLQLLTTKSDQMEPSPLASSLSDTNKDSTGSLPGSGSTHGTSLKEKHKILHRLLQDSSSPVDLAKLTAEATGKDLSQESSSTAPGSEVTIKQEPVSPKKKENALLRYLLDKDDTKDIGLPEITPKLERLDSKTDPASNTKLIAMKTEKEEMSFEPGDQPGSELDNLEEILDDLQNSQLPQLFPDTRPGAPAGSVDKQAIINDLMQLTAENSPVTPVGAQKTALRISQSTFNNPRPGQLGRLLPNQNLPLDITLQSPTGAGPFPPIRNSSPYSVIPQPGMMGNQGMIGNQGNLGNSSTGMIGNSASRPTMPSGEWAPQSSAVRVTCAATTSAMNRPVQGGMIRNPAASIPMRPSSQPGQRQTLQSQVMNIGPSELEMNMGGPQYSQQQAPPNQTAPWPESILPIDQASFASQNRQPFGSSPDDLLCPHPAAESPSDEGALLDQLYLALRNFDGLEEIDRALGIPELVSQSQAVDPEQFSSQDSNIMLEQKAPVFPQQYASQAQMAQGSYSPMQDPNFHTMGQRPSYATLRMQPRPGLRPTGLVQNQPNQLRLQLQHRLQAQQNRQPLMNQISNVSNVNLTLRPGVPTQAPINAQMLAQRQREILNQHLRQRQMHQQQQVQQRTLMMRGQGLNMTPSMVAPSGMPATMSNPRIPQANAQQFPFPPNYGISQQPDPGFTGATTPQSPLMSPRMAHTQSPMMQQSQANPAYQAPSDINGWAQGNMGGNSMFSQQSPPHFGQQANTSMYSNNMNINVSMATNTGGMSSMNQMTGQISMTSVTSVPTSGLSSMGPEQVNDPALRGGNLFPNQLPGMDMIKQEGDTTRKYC

[8] = inhibitors of SNCA 5'UTR-driven reporter translation, confirmation, H4 neuroglioma cells, luminescence (AID 1988); format: functional, cell-based
[9] = Luminescence Cell-Based Dose Response HTS to Identify Inhibitors of 5'UTR Stem-Loop Driven Prion Protein mRNA Translation in H4 Neuroglioblastoma Cells. [Related pubchem assays: 1827 (Project Summary), 1813 (Primary HTS)]; format: functional
[10] = target: Dual specificity tyrosine-phosphorylation-regulated kinase 1A (Rattus norvegicus, UniProt Q63470); format: biochemical, Homo sapiens
cells = format: functional
Insulin-degrading enzyme [11] = target: T2, Insulin-degrading enzyme (Homo sapiens, UniProt P14735); assay: activators of endogenous IDE in HEK cells, dose response, cell-based, fluorescence polarization (AID 588439); format: functional
T2 sequence (P14735 whole entry): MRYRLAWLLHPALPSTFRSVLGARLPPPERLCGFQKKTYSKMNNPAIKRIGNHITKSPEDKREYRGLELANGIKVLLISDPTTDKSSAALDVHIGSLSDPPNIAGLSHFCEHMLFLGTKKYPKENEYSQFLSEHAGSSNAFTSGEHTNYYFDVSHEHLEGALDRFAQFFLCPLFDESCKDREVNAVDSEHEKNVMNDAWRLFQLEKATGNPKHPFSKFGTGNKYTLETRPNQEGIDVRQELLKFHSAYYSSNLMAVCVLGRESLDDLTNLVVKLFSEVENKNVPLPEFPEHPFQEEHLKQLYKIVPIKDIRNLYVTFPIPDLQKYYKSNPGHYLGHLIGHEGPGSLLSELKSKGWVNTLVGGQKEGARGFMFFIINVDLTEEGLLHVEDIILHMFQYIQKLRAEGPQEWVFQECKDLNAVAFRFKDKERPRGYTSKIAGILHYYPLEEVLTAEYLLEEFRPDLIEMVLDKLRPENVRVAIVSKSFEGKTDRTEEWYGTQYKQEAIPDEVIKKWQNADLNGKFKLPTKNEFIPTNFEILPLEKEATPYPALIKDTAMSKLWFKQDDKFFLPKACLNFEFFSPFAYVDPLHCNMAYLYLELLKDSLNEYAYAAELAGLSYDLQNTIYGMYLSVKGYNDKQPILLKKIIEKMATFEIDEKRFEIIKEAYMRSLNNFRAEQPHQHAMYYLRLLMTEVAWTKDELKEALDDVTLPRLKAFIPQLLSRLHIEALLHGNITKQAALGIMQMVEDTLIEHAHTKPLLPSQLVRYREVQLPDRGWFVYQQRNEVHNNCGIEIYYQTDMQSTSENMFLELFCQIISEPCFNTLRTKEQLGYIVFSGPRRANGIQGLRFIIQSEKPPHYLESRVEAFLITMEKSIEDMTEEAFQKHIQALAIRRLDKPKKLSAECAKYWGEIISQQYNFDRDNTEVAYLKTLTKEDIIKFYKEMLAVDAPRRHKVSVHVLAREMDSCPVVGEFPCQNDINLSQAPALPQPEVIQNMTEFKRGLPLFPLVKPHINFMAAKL

HEK293 [12] = assay: HEK cell cytotoxicity by LDH release, dose response, cytotoxicity control for IDE activator project, fluorescence, HEK cells (AID 588440); format: functional, cell-based; conditions: Homo sapiens;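 also: cytotoxicity by LDH release measuring loss of membrane integrity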
Insulin-degrading enzyme [13] = target: T2, Insulin-degrading enzyme; assay: activators of recombinant IDE enzyme, dose response, counter-screen for IDE activator project, biochemical, fluorescence polarization (AID 588681)
HEK293 [14] = assay: optical interference in Abeta FP readout, dose response, artefact control for IDE activator project, biochemical, fluorescence polarization (AID 588442); format: functional, cell-based; conditions: Homo sapiens
Cytochrome P450 2D6 = Cytochrome P450 2D6 (Homo sapiens, UniProt P10635);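 also: CYP2D6 member of a cytochrome P450 panel assay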
[15] = target: T3, Voltage-gated N-type calcium channel alpha-1B subunit/Amyloid beta A4 precursor protein-binding family A member 1 (Homo sapiens, UniProt Q00975+Q02410); format: protein assay
T3 sequence (Q00975 whole entry): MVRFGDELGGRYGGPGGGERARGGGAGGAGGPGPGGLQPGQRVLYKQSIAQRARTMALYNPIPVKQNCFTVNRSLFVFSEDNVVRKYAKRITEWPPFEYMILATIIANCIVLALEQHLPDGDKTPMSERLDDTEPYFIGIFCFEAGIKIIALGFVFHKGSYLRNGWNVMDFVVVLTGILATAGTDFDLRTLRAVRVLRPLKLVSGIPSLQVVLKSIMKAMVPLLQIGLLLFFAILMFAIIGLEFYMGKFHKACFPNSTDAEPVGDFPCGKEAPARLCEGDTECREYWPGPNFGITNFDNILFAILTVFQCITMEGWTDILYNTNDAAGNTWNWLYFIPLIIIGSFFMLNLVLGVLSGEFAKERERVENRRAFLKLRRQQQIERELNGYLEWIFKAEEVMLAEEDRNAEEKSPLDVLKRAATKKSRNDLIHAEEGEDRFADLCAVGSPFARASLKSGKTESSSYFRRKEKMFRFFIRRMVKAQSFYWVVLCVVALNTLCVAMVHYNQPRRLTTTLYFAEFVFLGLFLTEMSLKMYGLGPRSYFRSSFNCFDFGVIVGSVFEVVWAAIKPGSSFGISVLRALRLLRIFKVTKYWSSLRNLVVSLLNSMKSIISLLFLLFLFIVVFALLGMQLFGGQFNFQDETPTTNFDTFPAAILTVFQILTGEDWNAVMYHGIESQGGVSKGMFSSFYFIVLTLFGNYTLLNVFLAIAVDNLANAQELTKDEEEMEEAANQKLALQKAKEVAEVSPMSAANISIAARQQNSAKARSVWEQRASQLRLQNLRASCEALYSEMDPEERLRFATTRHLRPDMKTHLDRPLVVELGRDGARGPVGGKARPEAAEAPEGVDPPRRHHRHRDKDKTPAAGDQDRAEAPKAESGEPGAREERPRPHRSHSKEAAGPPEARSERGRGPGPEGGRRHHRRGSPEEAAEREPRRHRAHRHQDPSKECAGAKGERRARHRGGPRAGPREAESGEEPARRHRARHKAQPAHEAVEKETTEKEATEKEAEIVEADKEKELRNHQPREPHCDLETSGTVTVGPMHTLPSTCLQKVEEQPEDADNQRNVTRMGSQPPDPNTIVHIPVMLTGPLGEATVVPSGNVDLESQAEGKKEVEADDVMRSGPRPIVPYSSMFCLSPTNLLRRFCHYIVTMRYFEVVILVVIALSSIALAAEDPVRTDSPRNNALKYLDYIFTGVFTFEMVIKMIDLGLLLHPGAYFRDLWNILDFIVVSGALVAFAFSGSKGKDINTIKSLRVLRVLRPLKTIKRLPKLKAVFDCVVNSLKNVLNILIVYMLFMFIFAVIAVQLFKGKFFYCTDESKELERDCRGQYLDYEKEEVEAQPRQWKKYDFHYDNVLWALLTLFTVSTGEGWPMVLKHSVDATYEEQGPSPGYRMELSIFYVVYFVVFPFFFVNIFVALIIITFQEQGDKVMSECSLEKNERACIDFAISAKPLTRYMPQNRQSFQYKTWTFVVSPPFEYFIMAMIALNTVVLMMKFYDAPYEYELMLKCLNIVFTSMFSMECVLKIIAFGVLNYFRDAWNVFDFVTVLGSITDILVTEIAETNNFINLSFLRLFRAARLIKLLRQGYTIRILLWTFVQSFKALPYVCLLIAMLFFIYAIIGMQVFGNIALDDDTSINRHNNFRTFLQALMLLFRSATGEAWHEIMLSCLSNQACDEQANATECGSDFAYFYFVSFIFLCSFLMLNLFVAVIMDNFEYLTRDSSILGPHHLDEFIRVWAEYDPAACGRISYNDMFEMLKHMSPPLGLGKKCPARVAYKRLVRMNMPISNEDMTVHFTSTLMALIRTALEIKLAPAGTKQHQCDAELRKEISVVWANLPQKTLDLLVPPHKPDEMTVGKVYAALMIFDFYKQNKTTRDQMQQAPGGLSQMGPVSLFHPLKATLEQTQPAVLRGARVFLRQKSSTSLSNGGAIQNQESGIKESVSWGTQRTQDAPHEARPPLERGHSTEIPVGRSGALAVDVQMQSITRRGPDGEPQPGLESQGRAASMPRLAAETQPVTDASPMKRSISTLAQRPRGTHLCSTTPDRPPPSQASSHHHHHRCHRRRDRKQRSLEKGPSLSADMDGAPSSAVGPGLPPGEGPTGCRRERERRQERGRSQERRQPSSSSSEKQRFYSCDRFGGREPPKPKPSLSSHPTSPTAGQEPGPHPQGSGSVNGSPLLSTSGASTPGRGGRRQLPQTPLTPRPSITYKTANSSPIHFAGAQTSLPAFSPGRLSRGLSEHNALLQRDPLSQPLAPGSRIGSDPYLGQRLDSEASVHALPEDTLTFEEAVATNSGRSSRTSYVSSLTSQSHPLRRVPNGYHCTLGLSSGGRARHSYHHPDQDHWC
T3 sequence (Q02410 whole entry): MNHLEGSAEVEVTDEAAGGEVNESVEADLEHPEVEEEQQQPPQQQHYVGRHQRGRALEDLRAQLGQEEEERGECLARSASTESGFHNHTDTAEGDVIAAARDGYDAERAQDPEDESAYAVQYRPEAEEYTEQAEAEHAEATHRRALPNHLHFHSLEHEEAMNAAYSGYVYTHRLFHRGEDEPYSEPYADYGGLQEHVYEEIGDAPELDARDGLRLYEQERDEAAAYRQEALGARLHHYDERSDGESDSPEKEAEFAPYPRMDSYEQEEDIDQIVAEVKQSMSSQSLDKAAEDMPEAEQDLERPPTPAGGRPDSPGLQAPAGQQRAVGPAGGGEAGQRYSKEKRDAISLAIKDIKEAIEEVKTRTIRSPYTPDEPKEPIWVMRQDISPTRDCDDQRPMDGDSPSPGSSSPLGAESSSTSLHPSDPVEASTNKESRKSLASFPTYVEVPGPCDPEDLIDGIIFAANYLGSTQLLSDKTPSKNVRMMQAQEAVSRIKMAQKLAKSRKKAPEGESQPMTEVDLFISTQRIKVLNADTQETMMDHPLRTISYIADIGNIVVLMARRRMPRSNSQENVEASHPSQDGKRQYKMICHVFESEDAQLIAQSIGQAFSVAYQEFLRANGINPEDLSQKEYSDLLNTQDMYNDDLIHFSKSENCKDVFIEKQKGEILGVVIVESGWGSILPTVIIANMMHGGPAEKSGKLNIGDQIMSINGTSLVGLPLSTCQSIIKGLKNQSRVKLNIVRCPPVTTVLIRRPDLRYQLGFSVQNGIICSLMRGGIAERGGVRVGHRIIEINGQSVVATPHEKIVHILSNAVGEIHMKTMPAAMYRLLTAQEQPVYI

[16] = target: T3, Voltage-gated N-type calcium channel alpha-1B subunit/Amyloid beta A4 precursor protein-binding family A member 1; format: protein assay; remark: listed apart in the source
[17] = target: T4, Carboxy-terminal domain RNA polymerase II polypeptide A small phosphatase 1 (Homo sapiens, UniProt Q9GZU7); assay: inhibitors of CTDSP1, concentration-response testing, biochemical assay, absorbance-based, actives from ultra-high-throughput screening (AID 540297); format: functional
T4 sequence (Q9GZU7 whole entry): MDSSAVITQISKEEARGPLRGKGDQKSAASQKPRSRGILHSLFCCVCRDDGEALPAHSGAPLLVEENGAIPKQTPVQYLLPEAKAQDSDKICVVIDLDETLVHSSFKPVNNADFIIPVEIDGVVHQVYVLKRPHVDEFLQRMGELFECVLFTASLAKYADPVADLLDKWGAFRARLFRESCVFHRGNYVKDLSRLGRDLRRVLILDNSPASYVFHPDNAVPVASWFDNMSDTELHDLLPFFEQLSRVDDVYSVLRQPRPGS

In the case of `Nc1c(C(=O)NC2CCCC2)sc2nc(-c3cccs3)ccc12`, the EC50 [1] is reported as > 99 µM (inactive) and the EC50 [2] is reported as 54 µM (inactive).

For `COc1ccccc1NC(=O)CC(c1ccc(OC(C)C)cc1)c1ccccc1OC` (stereo not drawn), the AC50 (HEK293 [3]) was 194 µM (active).

With `CCCC1O[C@@H]2CC3C4CCC5=CC(=O)C=C[C@]5(C)C4C(OC(C)=O)C[C@]3(C)[C@]2(C(=O)COC(C)=O)O1` (stereo partly drawn) the EC50 [4] was 6.65 µM (active), the EC50 [5] was 22.1 µM (active) and the EC50 [6] was 4.66 µM (active). The EC50 [7] was 8.71 µM (active), the EC50 [8] was 18.8 µM (active) and the EC50 [9] was > 120 µM (not active).

In the case of `O=C1NC(=O)N(c2ccccc2)C(=O)/C1=C/c1c(-c2ccccc2)[nH]c2ccccc12`, the AC50 [10] is reported as 2.65 µM (active).

In the case of `CCCCn1c(O)c(N=Nc2ccccc2O)c2ccccc21`, the EC50 [1] is reported as 44.9 µM (inactive) and the EC50 [2] is reported as 69.5 µM (inactive).

With `Cn1c(=O)cc(SCC(=O)N2CCN(Cc3ccc4c(c3)OCO4)CC2)c2ccccc21` the EC50 [4] was > 79.4 µM (inactive), the EC50 [6] was > 79.4 µM (not active) and the EC50 [7] was > 79.4 µM (not active).

With `CC(=O)n1cc(/C=C2/N=C(c3ccccc3)OC2=O)c2ccccc21` the EC50 [1] was > 99 µM (inactive), the IC50 (cells) was 4.63 µM (active) and the EC50 [2] was > 99 µM (inactive).

For `O=C1C=C(c2cccc3c2sc2ccccc23)C[C@@H](c2ccc(Cl)cc2)C1`, the EC50 (Insulin-degrading enzyme [11]) was > 54.7 µM (inactive), the IC50 (HEK293 [12]) was > 89.2 µM (inactive) and the EC50 (Insulin-degrading enzyme [13]) was > 54.7 µM (inactive). For the same compound, the EC50 (HEK293 [14]) was > 54.7 µM (inactive).

For `O=C(O)CCC(=O)c1ccc2ccc3cccc4ccc1c2c34`, the AC50 (Cytochrome P450 2D6) was “inconclusive”.

With `O=C1C2C(C(=O)N1/N=C/c1ccc(N3CCCCC3)o1)C1C=CC2C12CC2` (stereo not drawn) the IC50 [15] was 7.24 µM (active) and the IC50 [16] was 20.1 µM (active).

For `COc1ccc([C@@H]2CC(=O)c3c(O)cc(O[C@@H]4O[C@H](CO[C@@H]5O[C@@H](C)[C@H](O)[C@@H](O)[C@H]5O)[C@@H](O)[C@H](O)[C@H]4O)cc3O2)cc1O` [HESPERIDIN], the IC50 [15] was 9.5 µM (active), the IC50 [17] was 20.7 µM (active) and the IC50 [16] was > 50 µM (inactive).
